Source: patent publication US8802711B2, “TRPV1 antagonists” (AbbVie Inc., priority 2011, dated 2014)

Legend:
[1] = target: T1, human TRPV1 receptor (hTRPV1) (Homo sapiens (Human), UniProt Q8NER1); experiment: Acid activation assay (pH 5.0, FLIPR intracellular Ca2+); assay type: cell-based; details: Table 1; 37.5 μM antagonist, percentage of the maximal pH 5.0-induced response remaining; read-out: hTRPV1 H+ (max % remain)
Experimental: Dulbecco's modified Eagle's medium (DMEM) with 4.5 mg/mL D-glucose, fetal bovine serum, L-glutamine, and 2-morpholinoethanesulfonic acid (MES) were purchased from Sigma-Aldrich Co. (St. Louis, Mo.). Dulbecco's phosphate-buffered saline (DPBS) with Ca^2+, Mg^2+, and 1 mg/mL D-glucose (pH 7.4), Geneticin®, 0.25% trypsin-1 mM EDTA, and penicillin-streptomycin were purchased from Invitrogen Corp. (Carlsbad, Calif.). The FLIPR® Calcium 4 assay kit was purchased from Molecular Devices (Sunnyvale, Calif.).
The cDNAs for the human TRPV1 receptor (hTRPV1) were isolated by reverse transcriptase-polymerase chain reaction (RT-PCR) from human small intestine poly A+RNA supplied by Clontech (Palo Alto, Calif.) using primers designed surrounding the initiation and termination codons identical to the published sequences (Hayes et al. Pain 2000, 88, 205-215). The resulting cDNA PCR products were subcloned into pCIneo mammalian expression vector (Promega) and fully sequenced using fluorescent dye-terminator reagents (Prism, Perkin-Elmer Applied Biosystems Division) and a Perkin-Elmer Applied Biosystems Model 373 DNA sequencer or Model 310 genetic analyzer. Expression plasmids encoding the hTRPV1 cDNA were transfected individually into 1321N1 human astrocytoma cells using Lipofectamine. Forty-eight hours after transfection, the neomycin-resistant cells were selected with growth medium containing 800 μg/mL Geneticin (Gibco BRL). Surviving individual colonies were isolated and screened for TRPV1 receptor activity. Cells expressing recombinant homomeric TRPV1 receptors were maintained at 37° C. in DMEM containing 4 mM L-glutamine, 300 μg/mL G418 (Cal-biochem) and 10% fetal bovine serum under a humidified 5% CO2 atmosphere.
The functional activity of compounds at the TRPV1 receptor was determined by measurement of intracellular Ca^2+ levels ([Ca^2+]i) using the Fluorescence Imaging Plate Reader (FLIPR)^TETRA®. All compounds were tested over a 12-point one-half-log concentration range. Compound stocks, 10 mM, were prepared in DMSO, and diluted serially across a 384-well plate using a Bravo BenchCel workstation (Agilent Technologies, Santa Clara, Calif.).
On the day of the experiment growth medium was removed, and the no-wash FLIPR® Calcium-4 dye (λEX=470-495 nm, λEM=515-575 nm) was added to each well using the Multidrop® dispenser. Cells were incubated for 90-120 minutes in the dark at 25° C. Test compounds were dissolved in DMSO, and plates were prepared using an Agilent Bravo workstation (Agilent Technologies Inc., Santa Clara, Calif.). Compounds were added to the cells 3 minutes prior to the addition of a pH 5.0 solution. Reagents were delivered at a rate of 40 μL/sec, and the final assay volume was 80 μL. Acidic pH solutions were prepared by titration of DPBS/MES with 1 N HCl. The intensity of the fluorescence was captured and digitally transferred to an interfaced PC.

[2] = target: T1, human TRPV1 receptor (hTRPV1); experiment: Capsaicin activation assay (FLIPR intracellular Ca2+); assay type: cell-based; details: Table 1; inhibition of capsaicin-induced intracellular Ca2+ increase, HEK293 cells expressing human TRPV1; read-out: hTRPV1 cap IC50
Experimental: Dulbecco's modified Eagle medium (D-MEM) (with 4.5 mg/mL glucose) and fetal bovine serum were obtained from Hyclone Laboratories, Inc. (Logan, Utah). Dulbecco's phosphate-buffered saline (D-PBS) (with 1 mg/mL glucose and 3.6 mg/l Na pyruvate, without phenol red), L-glutamine, hygromycin B, and Lipofectamine® were obtained from Life Technologies (Grand Island, N.Y.). G418 sulfate was obtained from Calbiochem-Novabiochem Corp. (San Diego, Calif.). Capsaicin (8-methyl-N-vanillyl-6-nonenamide) was obtained from Sigma-Aldrich, Co. (St. Louis, Mo.). Fluo-4 AM (N-[4-[6-[(acetyloxy)methoxy]-2,7-difluoro-3-oxo-3H-xanthen-9-yl]-2-[2-[2-[bis[2-[(acetyloxy)methoxy]-2-oxyethyl]amino]-5-methyl phenoxy]ethoxy]phenyl]-N-[2-[(acetyloxy)methoxy]-2-oxyethyl]-glycine, (acetyloxy)methyl ester) was purchased from Molecular Probes (Eugene, Oreg.). […]
The functional activity of compounds at the TRPV1 receptor was determined by measurement of intracellular Ca^2+ levels ([Ca^2+]i) using the Fluorescence Imaging Plate Reader (FLIPR)^TETRA®. All compounds were tested over a 12-point one-third-log concentration range. Compound stocks, 10 mM, were prepared in DMSO, and diluted serially across a 384-well plate using a Bravo BenchCel workstation (Agilent Technologies, Santa Clara, Calif.). A stock concentration of capsaicin (10 mM) was made in DMSO, and diluted in D-PBS to a final concentration of 200 nM (4×). On the day prior to the experiment, recombinant HEK293 cells that stably express human TRPV1 were removed from tissue culture flasks and plated in growth medium into black-walled clear-bottom 384-well Biocoat™ poly-D-lysine assay plates (BD Biosciences, Bedford, Mass.) using a Multidrop® dispenser (ThermoScientific, Waltham, Mass.). On the day of the experiment, growth medium was removed, and the no-wash FLIPR® Calcium-4 dye (λEX=470-495 nm, λEM=515-575 nm; Molecular Devices, Sunnyvale, Calif.) was added to each well using the Multidrop® dispenser. Cells were incubated for 90-120 minutes in the dark at room temperature. Test compounds were added to the cells 3 minutes prior to the addition of 200 nM capsaicin (4×), and the final assay volume was 80 μL. Fluorescence readings were made at 1 to 5 second intervals over the course of the experimental run. The peak increase in relative fluorescence units (minus baseline) was calculated, and expressed as a percentage of the 50 nM capsaicin (control) response.

T1 sequence (Q8NER1 whole entry): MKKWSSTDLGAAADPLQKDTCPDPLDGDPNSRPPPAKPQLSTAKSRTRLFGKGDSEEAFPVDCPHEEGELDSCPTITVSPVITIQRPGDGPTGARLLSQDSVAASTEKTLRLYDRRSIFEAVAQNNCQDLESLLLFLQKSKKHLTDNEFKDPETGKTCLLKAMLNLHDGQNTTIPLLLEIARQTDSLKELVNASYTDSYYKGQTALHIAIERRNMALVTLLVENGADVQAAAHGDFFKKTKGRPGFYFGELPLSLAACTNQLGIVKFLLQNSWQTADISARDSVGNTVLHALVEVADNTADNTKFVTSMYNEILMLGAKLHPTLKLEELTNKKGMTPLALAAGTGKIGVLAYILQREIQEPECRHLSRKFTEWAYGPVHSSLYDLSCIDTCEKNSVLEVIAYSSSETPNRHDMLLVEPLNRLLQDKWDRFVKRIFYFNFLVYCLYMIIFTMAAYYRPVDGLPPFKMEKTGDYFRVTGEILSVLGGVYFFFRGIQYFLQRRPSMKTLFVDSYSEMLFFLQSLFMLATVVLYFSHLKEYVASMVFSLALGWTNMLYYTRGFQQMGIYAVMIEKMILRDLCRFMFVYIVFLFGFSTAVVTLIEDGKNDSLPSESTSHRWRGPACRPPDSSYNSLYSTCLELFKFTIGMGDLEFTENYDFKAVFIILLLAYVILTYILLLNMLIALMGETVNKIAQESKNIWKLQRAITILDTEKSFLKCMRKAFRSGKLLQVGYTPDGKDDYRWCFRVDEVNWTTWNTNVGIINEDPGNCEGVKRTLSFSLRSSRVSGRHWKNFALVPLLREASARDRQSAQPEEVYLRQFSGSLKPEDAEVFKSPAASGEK

| remaining activity at 37.5 µM [1] | IC50 [2] | Compound |
| --- | --- | --- |
| 6% | – | O=C(Nc1cccc2[nH]ncc12)N[C@@H]1CC[C@@H](c2nc(C(F)(F)F)cs2)C1 (relative stereo) [Example 129, 1-(1H-indazol-4-yl)-3-{(1R*,3R*)-3-[4-(trifluoromethyl)-1,3-thiazol-2-yl]cyclopentyl}urea] |
| 41% | – | Cc1cc2c(NC(=O)N[C@H]3CC[C@@H](c4ncc(C)o4)C3)c(F)ccc2cn1 (stereo in doubt) [Example 125, 1-(6-fluoro-3-methylisoquinolin-5-yl)-3-[(1S*,3R*)-3-(5-methyl-1,3-oxazol-2-yl)cyclopentyl]urea] |
| 46% | 0.628 µM | Cn1ncc2c(NC(=O)N[C@H]3CC[C@@H](c4ccccc4)C3)cccc21 [Example 25, 1-(1-methyl-1H-indazol-4-yl)-3-[(1S,3R)-3-phenylcyclopentyl]urea] |
| 59% | 0.078 µM | Cn1c(=O)ccc2c(NC(=O)N[C@H]3CC[C@@H](c4ccccc4)C3)cccc21 [Example 50, 1-(1-methyl-2-oxo-1,2-dihydroquinolin-5-yl)-3-((1S,3R)-3-phenylcyclopentyl)urea] |
| 7% | 0.087 µM | CSc1ccc([C@H]2CCC(NC(=O)Nc3cccc4[nH]ncc34)C2)cc1 (stereo partly drawn) [Example 46, 1-(1H-indazol-4-yl)-3-{(3S)-3-[4-(methylsulfanyl)phenyl]cyclopentyl}urea] |
| 50% | > 37.5 µM | Cn1c(=O)ccc2c(NC(=O)N[C@H]3CC[C@H](c4ccccc4)C3)cccc21 [Example 118, 1-(1-methyl-2-oxo-1,2-dihydroquinolin-5-yl)-3-[(1S,3S)-3-phenylcyclopentyl]urea] |
| 18% | – | Cc1csc([C@H]2CC[C@H](NC(=O)Nc3cccc4[nH]ncc34)C2)n1 (relative stereo) [Example 119, 1-(1H-indazol-4-yl)-3-[(trans)-3-(4-methyl-1,3-thiazol-2-yl)cyclopentyl]urea] |
| 15% | 0.0086 µM | Cc1cc2c(NC(=O)N[C@H]3CC[C@H](c4ccccc4F)C3)c(F)ccc2cn1 [Example 71, 1-(6-fluoro-3-methylisoquinolin-5-yl)-3-[(1S,3S)-3-(2-fluorophenyl)cyclopentyl]urea] |
| 13% | 0.0054 µM | Cc1cc2c(NC(=O)N[C@@H]3CC[C@@H](c4cccc(F)c4)C3)c(F)ccc2cn1 [Example 84, 1-(6-fluoro-3-methylisoquinolin-5-yl)-3-[(1R,3R)-3-(3-fluorophenyl)cyclopentyl]urea] |
| 32% | 0.362 µM | O=C(Nc1cccc2c1CCC2)N[C@@H]1CC[C@H](c2ccccc2)C1 [Example 111, 1-(2,3-dihydro-1H-inden-4-yl)-3-[(1R,3S)-3-phenylcyclopentyl]urea] |
| 49% | 0.084 µM | Cn1ncc2c(NC(=O)N[C@H]3CC[C@H](c4ccccc4)C3)cccc21 [Example 11, 1-(1-methyl-1H-indazol-4-yl)-3-[(1S,3S)-3-phenylcyclopentyl]urea] |
| 67% | 22.4 µM | O=C(Nc1cccc2[nH]ncc12)N[C@H]1C[C@@H](c2ccccc2)[C@@H](O)[C@H]1O [Example 52, 1-((1S,2S,3R,4S)-2,3-dihydroxy-4-phenylcyclopentyl)-3-(1H-indazol-4-yl)urea] |
| 75% | > 37.5 µM | CN1C(=O)CCc2ccc(NC(=O)N[C@H]3CC[C@H](c4ccccc4)C3)cc21 [Example 106, 1-(1-methyl-2-oxo-1,2,3,4-tetrahydroquinolin-7-yl)-3-[(1S,3S)-3-phenylcyclopentyl]urea] |
| 10% | – | Cc1csc([C@H]2CC[C@@H](NC(=O)Nc3cccc4[nH]ncc34)C2)n1 (single isomer, unassigned) [Example 121, 1-(1H-indazol-4-yl)-3-[(1R*,3S*)-3-(4-methyl-1,3-thiazol-2-yl)cyclopentyl]urea] |
| 1% | – | O=C(Nc1cccc2[nH]ncc12)N[C@@H]1CCC(c2nc(C(F)(F)F)cs2)C1 (stereo partly drawn) [Example 131, 1-(1H-indazol-4-yl)-3-{(1R)-3-[4-(trifluoromethyl)-1,3-thiazol-2-yl]cyclopentyl}urea] |
| 54% | – | Cc1cnc([C@H]2CC[C@@H](NC(=O)Nc3cccc4[nH]ncc34)C2)o1 (stereo in doubt) [Example 128, 1-(1H-indazol-4-yl)-3-[(1R*,3S*)-3-(5-methyl-1,3-oxazol-2-yl)cyclopentyl]urea] |
| 23% | – | Cc1cnc([C@@H]2CC[C@H](NC(=O)Nc3cccc4[nH]ncc34)C2)o1 (stereo in doubt) [Example 126, 1-(1H-indazol-4-yl)-3-[(1S*,3R*)-3-(5-methyl-1,3-oxazol-2-yl)cyclopentyl]urea] |
| 53% | – | O=C(Nc1cccc2[nH]ncc12)N[C@H]1CC[C@@H](c2ccccn2)C1 (relative stereo) [Example 38, 1-(1H-indazol-4-yl)-3-[cis-3-(pyridin-2-yl)cyclopentyl]urea] |
| 5% | – | O=C(Nc1cccc2[nH]ncc12)N[C@@H]1CC[C@H](c2nc(C(F)(F)F)cs2)C1 (relative stereo) [Example 130, 1-(1H-indazol-4-yl)-3-{(1R*,3S*)-3-[4-(trifluoromethyl)-1,3-thiazol-2-yl]cyclopentyl}urea] |
| 54% | – | Cc1csc([C@@H]2CC[C@H](NC(=O)Nc3cccc4[nH]ncc34)C2)n1 (single isomer, unassigned) [Example 120, 1-(1H-indazol-4-yl)-3-[(1S*,3R*)-3-(4-methyl-1,3-thiazol-2-yl)cyclopentyl]urea] |
| 54% | – | Cc1cc2c(NC(=O)N[C@@H]3CC[C@H](c4ncc(C)o4)C3)c(F)ccc2cn1 (stereo in doubt) [Example 127, 1-(6-fluoro-3-methylisoquinolin-5-yl)-3-[(1R*,3S*)-3-(5-methyl-1,3-oxazol-2-yl)cyclopentyl]urea] |
| 33% | – | O=C(Nc1cccc2[nH]ncc12)N[C@H]1CC[C@H](c2ccccn2)C1 (relative stereo) [Example 39, 1-(1H-indazol-4-yl)-3-[trans-3-(pyridin-2-yl)cyclopentyl]urea] |
